“And” between values parts separate entries of the source, which are not always exact repeats. Equal values may be shown once. Read-outs that look alike come from different tables or passages of the source. Non-standard residues stand in square brackets, D forms with d. No end group written: not given here.
Key:
[1] = test system: MDCK monolayers; experiment: Transepithelial electrical resistance (RTE) / conductance (gTE) across MDCK monolayers; type: cell-based, canine; settings: for effect on transepithelial electrical resistance: upon onset of channel activity
Method: (§1) Transepithelial ion transport was evaluated in a modified Ussing chamber (Model DCV9, Navicyte, San Diego, Calif.). The Ussing chamber's fluid resistance compensation was completed in Ringer solution (composition (in mM) was 120 NaCl, 25 NaHCO3 3.3 KH2HPO4, 0.8 K2HPO4, 1.2 MgCl2, 1.2 CaCl2). For electrical measurements cell monolayers were bathed in Ringer solution maintained at 37° C. and continuously bubbled with 5% CO2:95% O2. The transepithelial membrane potential (Vte) was clamped to zero and the transepithelial short circuit current (Isc), an indicator of net ion transport, was measured continuously with a voltage clamp apparatus (Model 558C, University of Iowa, Department of Bioengineering, Iowa City, Iowa). Data were digitally acquired at 1 Hz with a Macintosh computer (Apple Computer, Cuppertino, Calif.) using Aqknowledge software (ver. 3.2.6, BIOPAC Systems, Santa Barbara, Calif.) with an MP100A-CE interface.
MDCK cell monolayers (in the presence of 1-EBIO to maximize basolateral membrane K^+ conductance) were exposed on the apical aspect to various concentrations of selected peptides as indicated.
In this experiment, the MDCK monolayers were initially incubated with 60 μM of SEQ ID No. 27. When the residual resistance reached approximately 10% of the starting value, the peptide was removed by aspiration and followed by the addition of pre-warmed Ringer solution. This solution was subsequently removed and replaced an additional five times over the next 2 minutes. In this figure, the solid central line represents the measured current at zero mV and the vertical deflections represent the current recorded during periodic 1 mV bipolar pulses. Pulse amplitude is inversely proportional to RTE in accordance with Ohm's law.
Additional experiments have been conducted to test for complete reversibility of peptide-induced changes in RTE. Monolayers were exposed to peptide (60 μM) in an Ussing chamber for ˜20 minutes to document decreases in RTE, recovered and returned to the cell culture incubator for two to five days with the apical and basolateral media refreshed daily before subsequent assessment of basal RTE and responsiveness to peptide. In the previous example, the return of RTE was only followed for hours. In this example, the restoration of RTE was measured over days to determine the minimum time require for full recovery.
Electrical measurements. Transepithelial ion transport was evaluated in modified Ussing chambers (Model DCV9; Navicyte, San Diego, Calif.). For typical electrical measurements of ion flux, cells were bathed in symmetrical Ringer solution (composition in mM: 120 NaCl, 25 NaHCO3, 3.3 KH2HPO4, 0.8 K2HPO4, 1.2 MgCl2, 1.2 CaCl 2; 290±2 mOsmol). The diffusion chambers were maintained at 37° C. and continuously bubbled with 5% CO2/95% O2 to maintain pH, provide aeration and mix the fluid in the chambers. The transepithelial potential (VTE) was clamped to zero, and ISC measured continuously with a voltage-clamp apparatus (Model 558C, University of Iowa, Department of Bioengineering, Iowa City, Iowa). Data were acquired at 1 Hz with a Macintosh computer (Apple Computer, Cuppertino, Calif.) using Aqknowledge software (ver. 3.2.6; BIOPAC Systems, Santa Barbara, Calif.) with an MP100A-CE interface. gTE was determined by exposing the epithelia to a 5 second 1 mV bipolar pulse at 100 second intervals. The recorded current deflections were used with Ohms law to calculate gTE: […]

[2] = test system: MDCK cells; type: cell-based, canine
Excerpt: Cell culture: MDCK cells were a generous gift of Dr. Lawrence Sullivan (Kansas University Medical Center, Kansas City, Kans.). T84 cells were obtained from Dr. Daniel Devor (University of Pittsburgh, Pittsburgh, Pa.). MDCK and T84 cells were maintained with similar culture procedures. The culture medium was a 1:1 mixture of DMEM and Ham's F-12 (Gibco BRL, Grand Island, N.Y.) supplemented with 5% heat inactivated fetal bovine serum (BioWhittaker, Walkersville, Md.), and 1% penicillin and streptomycin (Gibco BRL). Cells were grown in plastic culture flasks in a humidified environment with 5% CO2 at 37° C. and passaged every 5-7 days. For Ussing chamber experiments, cells were plated on 1.13 cm^2 permeable supports (Snapwell™, Costar®, Cambridge, Mass.) at a density of approximately 1×10^6 cells/well and incubated in DMEM/F-12 supplemented with FBS and antibiotics (changed every other day) for 2-3 weeks prior to being mounted in modified Ussing flux chambers.
To form monolayers, the cells were plated onto the upper surface of a permeable membrane that forms the bottom of a plastic well. Two types were used. One was the Transwell™ insert (Costar®, Cambridge, Mass.) supported in a six-well tissue culture plate and the other type was the Snapwell™ (Costar®, Cambridge, Mass.). During incubation, the medium was replaced at 48-72 hour intervals. Confluent monolayers formed within 72 hours. Experiments were performed on the monolayers 6-9 days after the initial plating. Net fluid secretion responses were optimal after six days.
Solutions: Ringer solution was made fresh daily. The final concentration (in mM) was 120 NaCl, 25 NaHCO3 3.3 KH2HPO4, 0.8 K2HPO4, 1.2 MgCl2, 1.2 CaCl2, (290±2 mOsmol). All components of the Ringer solution were from Sigma (St. Louis, Mo.).
as §1, with “Epithelial electrical measurements: Transepithelial” for “Transepithelial”, “(see below).” for “(composition (in mM) was 120 NaCl, 25 NaHCO3 3.3 KH2HPO4, 0.8 K2HPO4, 1.2 MgCl2, 1.2 CaCl2).”
as §1
MDCK cell monolayers (in the presence of 1-EBIO to maximize basolateral membrane K^+ conductance) were exposed on the apical aspect to escelating peptide concentrations. Maximal change in Isc (relative to the Isc prior to peptide exposure) was recorded following each increment in apical peptide concentration. […]

[3] = Chemical cross-linking (BS3) and SDS-PAGE, oligomeric state of peptide in solution; type: physicochemical; settings: SDS-PAGE
Method: Chemical cross-linking: In order to visualize the oligomeric state of the peptide in solution a chemical cross-linking protocol was developed. Calculated amounts of each peptide were weighted out and dissolved in 1 mL of distilled water to make 1 mM stock solutions. A 100 mM stock solution of the chemical crosslinking reagent Bis[Sulfosuccinimidyl]suberate, BS^3, (Pierce Chemical Co., Rockford, Ill.) was prepared in dimethyl sulfoxide (DMSO). […] Sample were allowed to sit at room temperature for 15 minutes. 1-6 μL of 100 mM BS^3 was then added to the previously prepared peptide such that the crosslinking reagent was present in 20-fold excess. The final volume for each reaction was 100 μL. […] Each sample was then vacuum dried. Later dry samples were re-dissolved in 60 μL of distilled water along with 60 μL of a 2×-tricine SDS sample buffer (Novex, San Diego). All samples were then boiled at 100° C. for 5 minutes. 5 μL aliquots of each SDS boiled sample was then loaded into separate lanes of pre-cast, 1.0 mm, 10 well, 10-20% tricine gels (Novex, San Diego). Pre-made Novex tricine-SDS buffer was used in the electrophoresis. The reference well contained 1 μL of MultiMark® multi-colored molecular weight standard (Novex, San Diego). The electrophoresis was carried out at a constant 110 Volts for 90 minutes. […]

[4] = biological target: T1, tetrameric channel (four-helix bundle M2GlyR) (Homo sapiens, UniProt P23415); settings: cited from earlier work
T1 construct: four identical M2GlyR peptide units were tethered to a 9-amino acid carrier template to form a four-helix bundle protein; 9-amino acid carrier template (tethers four peptide units); host or cells: synthetic peptide construct reconstituted in lipid bilayers

[5] = Circular dichroism in 20% TFE; type: physicochemical; settings: water containing 20% TFE
Method: Circular dichroism: Circular dichroism spectra were recorded on a Jasco Model J-720 spectropolarimeter in the range 180-250 nm using quartz cuvettes with a 0.2 mm pathlength. Eight scans recorded at a rate of 20 nm/minute were averaged and corrected for contributions of buffer (10 mM HEPES, pH 7.2). […] The molar ellipticity was calculated using d-10-camphorsulfonic acid (290.5=7783° cm2 dmol 1) as a reference (Chen, G. C., and J. T. Yang. 1977. Two point calibration of spectropolarimeter with d-10-camphorsulfonic acid. Anal. Lett. 10:1195-1207.). The line shapes of the spectra were analyzed using a least-square fitting routine by comparison to polylysine standards representing 100%-helix, -turn, or random coil, respectively.

[6] = test system: isolated cells
[7] = cited from earlier work

all-D amino acid form of SEQ ID NO. 27: all-D amino acid form of SEQ ID NO. 27 ([dK][dK][dK][dK][dA][dA][dR][dV]G[dL]G[dI][dT][dT][dV][dL][dV][dT][dT][dI]G[dL]G[dV][dR][dA][dA])
concentration triggering conductance increases [1]: 40 µM

KKKKAARVGLGITTVWVTTIGLGVRAA (KKKKAARVGLGITTVWVTTIGLGVRAA; Modified Homo sapiens) [SEQ ID No. 9]
Activity profile in MDCK cells ([2]; peptide at 100 μM): 20.0 μA/cm2
Activity profile in MDCK cells ([2]; peptide at 100 μM, listed as 9): 20.0 at 100 μM μA/cm2
effect on transepithelial electrical resistance [1]: dramatic decrease in transepithelial electrical resistance
aggregation state in solution [3]: remained in monomer form

KKKKPARVGLGITTVLTMTTQW (Modified Homo sapiens) [SEQ ID No. 54]
effect on transepithelial electrical resistance [1]: dramatic decrease in transepithelial electrical resistance

Cc1cccc(C)c1NC(=O)C[N+](C)(C)C [QX-222]
block of the tetrameric channel [4]: not blocked

KKKKPARVGLGITTVLTMTTRW (Modified Homo sapiens) [SEQ ID No. 55]
decrease in RTE ([1]; 100 μM): ~70%
decrease in RTE ([1]; 200 μM): ~90%
effect on transepithelial electrical resistance [1]: dramatic decrease in transepithelial electrical resistance

KKKKVTTIGLGVRAPLVTTIGLGVRAA (KKKKVTTIGLGVRAPLVTTIGLGVRAA; Modified Homo sapiens) [SEQ ID No. 5]
Activity profile in MDCK cells ([2]; peptide at 500 μM): <1.0 at 500 μM μA/cm2
secondary structure by CD [5]: beta-sheet

KKKKPARVGLGITTVLVTTIGLGVRAP [SEQ ID No. 18, KKKKPARVGL GITTVLVTTI GLGVRAP]
EC50 ([2]; MDCK monolayers, modified Hill equation fit, read-out: half maximal effect on Isc (EC50 / K1/2)): 50 µM
effect on isolated cells [6]: not harmful to isolated cells

PARVGLGITTVLVTTIGLGVRAPKKKK [SEQ ID No. 19, PARVGLGITT VLVTTIGLGV RAPKKKK]
effect on isolated cells [6]: cytotoxic effects

O=C(O)c1cccnc1Nc1cccc(C(F)(F)F)c1 [NFA, niflumic acid]
block of the tetrameric channel [4]: blocked

KKKKPARVGLGITTVLVTTIGLGVRAA (KKKKPARVGLGITTVLVTTIGLGVRAA; Modified Homo sapiens) [SEQ ID No. 26]
peptide concentration producing maximal effect on Isc (Imax) ([2]; MDCK monolayers): 100 µM
Activity profile in MDCK cells ([2]; peptide at 100 μM): 25.7 at 100 μM μA/cm2
effect on transepithelial electrical resistance [1]: dramatic decrease in transepithelial electrical resistance
secondary structure by CD [5]: helical structure

PARVGLGITTVLTMTTQSSGSRA (PARVGLGITTVLTMTTQSSGSRA; listed as Homo sapiens) [SEQ ID No. 1]
Activity profile in MDCK cells ([2]; peptide at 500 μM): 1.5 at 500 μM μA/cm2
transference number for anions ([7]; 5-fold KCl concentration gradient): 0.85
single-channel conductance ([7]; symmetric 0.5 M KCl, listed as M2GlyR): 25 pS and 49 pS

KKKKPARVGL GITTVLT (KKKKPARVGLGITTVLT; Modified Homo sapiens) [SEQ ID No. 39]
Activity profile in MDCK cells ([2]; peptide at 500 μM): 1.8 at 500 μM μA/cm2

KKKKTMTTQSSGSRALARSGSSQTTMT (KKKKTMTTQSSGSRALARSGSSQTTMT; Modified Homo sapiens) [SEQ ID No. 24]
Activity profile in MDCK cells ([2]; peptide at 500 μM): <1.0 at 500 μM μA/cm2

O=C(O)c1c2ccccc2cc2ccccc12 [9-AC, 9-anthracene carboxylic acid]
block of the tetrameric channel [4]: blocked
